Results: PMC5794259, “Novel ATP-cone-driven allosteric regulation of ribonucleotide reductase via the radical-generating subunit” (eLife, 2018)
“And” between values parts separate entries of the source, which are not always exact repeats. Equal values may be shown once.

Columns and labels:
[1] = tested on: L. blandensis RNR (wild-type NrdB or NrdB∆99); experiment: Metal-dependency of enzyme activity; assay type: biochemical, Leeuwenhoekiella blandensis; conditions: metal added to cultures or 20 µM divalent metal ions to 10 µM NrdB
Method: Overnight cultures of E. coli BL21(DE3)/pET28a(+) bearing pET-nrdA, pET-nrdB and pET-nrdB∆99 were diluted to an absorbance at 600 nm of 0.1 in LB (Luria-Bertani) liquid medium, containing kanamycin (50 μg/ml) and shaken vigorously at 37°C. At an absorbance at 600 nm of 0.8, isopropyl-β-D-thiogalactopyranoside (Sigma) was added to a final concentration of 0.01 mM for NrdA expression and 0.5 mM for NrdB and NrdB∆99 expression. For particular experiments, 0.5 mM MnSO4 or 0.5 mM FeNH4(SO4)2 or the combination of both metals (0.4 mM and 0.25 mM respectively) were added to NrdB∆99 cultures. The cells were grown overnight at 14°C for NrdA expression and 20°C for NrdB and NrdB∆99 expression and harvested by centrifugation.
(§1) Enzyme assays were performed at room temperature in 50 mM Tris-HCl at pH 8 in volumes of 50 μl. Reaction conditions, giving maximal activity were determined experimentally. […] Mixtures of 0.5 μM NrdA and 2 μM wild type NrdB or NrdB∆99 (for determination of s-site KL) (Figure 3a–b) or 0.5 μM of NrdB and 2 uM NrdA (for determination of a-site KL), (Figure 3c–f) were used. Some components were explicitly varied in specific experiments. Generally, 0.8 mM CDP was used as substrate. […] When dTTP was used as an s-site effector, 0.5 mM or 0.8 mM GDP was used as substrate. […]

[2] = target: L. blandensis RNR, a-site (NrdB-linked ATP-cone) (Leeuwenhoekiella blandensis, UniProt A3XHF9); experiment: Enzyme activity assay with wild type NrdB (overall activity regulation, a-site); assay type: biochemical; conditions: for interaction with the a-site (effect on GDP reduction): 2 mM nucleotide, s-site saturating dTTP (2 mM), 4 µM NrdA and 1 µM NrdB
Method: (§2) Enzyme assays were performed at room temperature in 50 mM Tris-HCl at pH 8 in volumes of 50 μl. Reaction conditions, giving maximal activity were determined experimentally. […] Mixtures of 0.5 μM NrdA and 2 μM wild type NrdB or NrdB∆99 (for determination of s-site KL) (Figure 3a–b) or 0.5 μM of NrdB and 2 uM NrdA (for determination of a-site KL), (Figure 3c–f) were used. Some components were explicitly varied in specific experiments. Generally, 0.8 mM CDP was used as substrate. […] When dTTP was used as an s-site effector, 0.5 mM or 0.8 mM GDP was used as substrate. In four substrate assays, the four substrates CDP, ADP, GDP and UDP were simultaneously present in the mixture at concentrations of 0.5 mM each. The substrate mixture was added last to start the reactions. Certain assays were performed in the presence of Mn(CH3COO)2 or FeNH4(SO4): 20 μM of the indicated metal was added to 10 μM NrdB or NrdB∆99 protein, incubated for 10 min, mixed with NrdA and added to the reaction mixture.
(§3) Enzyme reactions were incubated for 10–30 min and then stopped by the addition of methanol. The chosen incubation time gave a maximum substrate turnover of 30%. […] Compound identification was achieved by comparison with injected standards. Relative quantification was obtained by peak height measurements in the chromatogram (UV absorbance at 271 nm) in relation to standards. Specific activities of either NrdA (Figure 2a–b) or NrdB (Figure 2c–f) were determined. Specific activities varied between protein preparations. In some cases the data was standardized to activity percent, where 100% was determined as maximum enzyme activity in a specific condition.
(§4) From a direct plot of activity versus concentration of effector, the KL values for binding of effectors to the s-site and the a-site, were calculated in SigmaPlot using the equation: V=Vmax×[dNTP]/(KL+[dNTP]) and Ki for non-competitive dATP inhibition at NrdB was calculated in Sigmaplot using the equation: V=Vmax/(1+[dNTP]/Ki)

[3] = tested on: L. blandensis class I RNR; experiment: Four-substrate activity assay, allosteric specificity regulation; assay type: biochemical, Leeuwenhoekiella blandensis; conditions: all four substrates 0.5 mM each, effector 2 mM, 1 µM NrdB and 4 µM NrdA
Method: as §2, §3

s-site in NrdA = target: T1, s-site in NrdA (Leeuwenhoekiella blandensis, UniProt A3XHF8); experiment: Enzyme activity assay, CDP reduction, effector titration with NrdB∆99 (s-site); assay type: biochemical; conditions: 0.5 µM NrdA and 2 µM NrdB∆99, read-out: KL (s-site), concentration of allosteric effector that gives half maximal enzyme activity
T1 sequence (A3XHF8 1-600): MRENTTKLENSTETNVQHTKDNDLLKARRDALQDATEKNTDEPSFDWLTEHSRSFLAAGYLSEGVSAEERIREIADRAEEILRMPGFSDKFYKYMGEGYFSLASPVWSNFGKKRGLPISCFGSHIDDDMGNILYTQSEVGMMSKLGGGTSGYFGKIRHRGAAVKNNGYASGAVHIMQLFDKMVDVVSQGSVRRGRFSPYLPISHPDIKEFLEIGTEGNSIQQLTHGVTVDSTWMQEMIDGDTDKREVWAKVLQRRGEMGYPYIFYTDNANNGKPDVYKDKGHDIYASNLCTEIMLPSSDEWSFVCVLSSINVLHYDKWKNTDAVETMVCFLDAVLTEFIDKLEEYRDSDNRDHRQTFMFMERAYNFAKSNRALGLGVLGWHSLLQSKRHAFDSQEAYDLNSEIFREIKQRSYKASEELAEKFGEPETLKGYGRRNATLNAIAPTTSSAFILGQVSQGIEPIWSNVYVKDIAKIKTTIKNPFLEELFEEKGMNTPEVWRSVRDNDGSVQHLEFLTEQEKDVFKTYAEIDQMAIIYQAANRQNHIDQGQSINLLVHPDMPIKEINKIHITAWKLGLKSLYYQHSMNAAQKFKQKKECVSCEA
T1 sequence (A3XHF9 100-427 partner): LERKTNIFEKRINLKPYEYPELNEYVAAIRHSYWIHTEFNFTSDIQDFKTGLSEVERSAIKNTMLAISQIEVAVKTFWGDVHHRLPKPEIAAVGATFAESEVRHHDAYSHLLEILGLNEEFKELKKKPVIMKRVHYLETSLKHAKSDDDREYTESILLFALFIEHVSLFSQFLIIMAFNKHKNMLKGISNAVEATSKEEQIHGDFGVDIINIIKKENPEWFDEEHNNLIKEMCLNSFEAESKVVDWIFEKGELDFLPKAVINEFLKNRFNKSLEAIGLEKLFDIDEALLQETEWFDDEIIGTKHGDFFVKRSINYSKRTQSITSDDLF
Method: as §1
Enzyme reactions were incubated for 10–30 min and then stopped by the addition of methanol. […] Relative quantification was obtained by peak height measurements in the chromatogram (UV absorbance at 271 nm) in relation to standards. Specific activities of either NrdA (Figure 2a–b) or NrdB (Figure 2c–f) were determined. […] In some cases the data was standardized to activity percent, where 100% was determined as maximum enzyme activity in a specific condition.
as §4

NrdB = NrdB (Leeuwenhoekiella blandensis, UniProt A3XHF9); experiment: Isothermal titration calorimetry (ITC), nucleotide binding to NrdB
Method: Isothermal titration calorimetry (ITC) experiments were carried out on a MicroCal PEAQ-ITC system (Malvern Instruments Ltd) in a buffer containing 25 mM HEPES (pH 7.65), 150 mM NaCl, and 10% glycerol, 2 mM tris(2-carboxyethyl)phosphine, and 5 mM MgCl2. Measurements were done at 10°C. The initial injection volume was 0.4 μl over a duration of 0.8 s. All subsequent injection volumes were 2–2.5 μl over 4–5 s with a spacing of 150 s between the injections. Data for the initial injection were not considered. For dATP binding analysis, the concentration of NrdB in the cell was 12 µM and dATP in syringe 120 or 140 µM. Reverse titrations were performed with 113 µM NrdB in the syringe and 12 or 30 µM dATP in the cell. For titration of dATP into NrdB∆99, protein concentration in the cell and dATP concentration in the syringe were 50 µM and 900 µM respectively. […] For titration of ATP into NrdB, cell and syringe concentrations were 50 and 1600 µM respectively. The data were analyzed using the built-in one set of sites model of the MicroCal PEAQ-ITC Analysis Software (Malvern Instruments Ltd). A fixed ligand/protein stoichiometry of 2 was used for dATP to NrdB titrations. Standard deviations in thermodynamic parameters, N and Kd were estimated from the fits of three different titrations.

L. blandensis RNR, a-site (NrdB-linked ATP-cone), sequence (A3XHF9 entry or part of it, one chain of several): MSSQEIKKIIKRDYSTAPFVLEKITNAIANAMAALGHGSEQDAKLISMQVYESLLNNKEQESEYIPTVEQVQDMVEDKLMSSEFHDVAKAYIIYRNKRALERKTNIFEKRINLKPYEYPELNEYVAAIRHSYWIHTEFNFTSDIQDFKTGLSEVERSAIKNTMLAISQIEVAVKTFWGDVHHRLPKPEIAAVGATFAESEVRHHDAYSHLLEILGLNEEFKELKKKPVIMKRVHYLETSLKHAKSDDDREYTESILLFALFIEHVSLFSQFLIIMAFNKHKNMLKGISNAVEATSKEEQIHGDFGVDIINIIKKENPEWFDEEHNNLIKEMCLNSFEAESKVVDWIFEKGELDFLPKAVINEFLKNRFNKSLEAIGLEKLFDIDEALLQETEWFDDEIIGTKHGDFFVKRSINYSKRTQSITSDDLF
NrdB, sequence (A3XHF9 entry or part of it): as the sequence (A3XHF9 entry or part of it, one chain of several) above

O=S(=O)([O-])[O-].O=S(=O)([O-])[O-].[Fe+2].[NH4+].[NH4+] [Fe^2+, FeNH4(SO4)]
effect of metal on catalytic activity [1]: inhibition

Nc1ncnc2c1ncn2[C@H]1C[C@H](O)[C@@H](COP(=O)(O)O)O1 [dAMP]
interaction with the a-site (effect on GDP reduction) [2]: no effect

Nc1ncnc2c1ncn2[C@@H]1O[C@H](COP(=O)(O)OP(=O)(O)O)[C@@H](O)[C@H]1O [ADP]
interaction with the a-site (effect on GDP reduction) [2]: no effect

Nc1ncnc2c1ncn2[C@@H]1O[C@H](COP(=O)(O)OP(=O)(O)OP(=O)(O)O)[C@@H](O)[C@H]1O [ATP]
effect of s-site effector on substrate reduction [3]: stimulated the reduction of CDP and UDP
EC50 (s-site in NrdA): 30 µM
EC50 [2]: 96 µM
effect on enzyme activity ([2]; CDP reduction, 0.5 µM NrdA and 2 µM wild type NrdB): clearly activated the enzyme
-TΔS (NrdB; 10°C): 4.78 ± 0.96 kcal/mol
ΔG (NrdB; 10°C): -5.74 kcal/mol
Kd (NrdB; 10°C, one-set-of-sites model): 38 ± 2 µM
N (binding stoichiometry) (NrdB; 10°C, per NrdB monomer, for dATP kept constant N = 2, 59% active protein): 2.2 and 2.2 ± 0.4
lower affinity compared to dATP (NrdB; from Kd, ITC): 38 fold

Nc1ncnc2c1ncn2[C@@H]1O[C@H](COP(=O)(O)O)[C@@H](O)[C@H]1O [AMP]
interaction with the a-site (effect on GDP reduction) [2]: no effect
